Laboratory results as given in US9556169B2, “Compounds and compositions for the treatment of parasitic diseases” (NOVARTIS AG, priority 2012, dated 2017).
Like-named read-outs stand apart in the source and are kept apart here.

Tests used:
[1] = system: P. falciparum (NF54 or 3D7 strain); assay: P. falciparum proliferation assay in infected human blood cells (SYBR Green); type: cell-based; details: Plasmodium falciparum, Erythrocyte, read-out: EC50 (nM), inhibitory efficacy in delaying P. falciparum proliferation in infected human blood cells
Procedure: Assay for P. falciparum Proliferation in Infected Human Blood Cells
Compounds of the invention can be assayed to measure their capacity to inhibit proliferation of P. falciparum parasitemia in infected red blood cells. This parasite proliferation assay measures the increase in parasite DNA content using a DNA intercalating dye, SYBR Green® (INVITROGEN®) which has a high affinity for double stranded DNA.
NF54 or 3D7 P. falciparum strain is grown in complete culturing media until parasitemia reaches 3% to 8% with O+ human erythrocytes. […] 20 μl of screening media is dispensed into 384 well assay plates. 50 nl of compounds of the invention (in DMSO), including antimalarial controls (mefloquine, pyrimethamine and artemisinin), are then transferred into the assay plates, as well as DMSO alone to serve as a negative control for inhibition. Then 30 μl of a suspension of a NF54 or 3D7 P. falciparum infected erythrocytes in screening media is dispensed into the assay plates such that the final hematocrit is 2.5% with a final parasitemia of 0.3%. The plates are placed in a 37° C. incubator for 72 hours in a low oxygen environment containing 93% N2, 4% CO2, and 3% O2 gas mixture. 10 μl of lysis buffer (saponin, triton-X, EDTA) containing a 10× solution of SYBR Green I® in RPMI media is dispensed into the plates. The plates are lidded and kept at room temperature overnight for the lysis of the infected red blood cells. The fluorescence intensity is measured (excitation 425 nm, emission 530 nm) using the Envision™ system (Perkin Elmer). The percentage inhibition of 50%, EC50, is calculated for each compound.

[2] = system: Plasmodium berghei line expressing luciferase (Pb-luc) sporozoites; assay: Liver stage P. berghei luciferase proliferation assay in CD81-GFP-HepG2 cells; type: cell-based
Procedure: Liver Stage P. berghei Luciferase Proliferation Assay
CD81-GFP-HepG2 cells (obtained from the lab of Dominique Mazier) were seeded into GNF custom Greiner plates (1536-well, white, TC-treated, solid bottom). A final density of 3000 cells/well was achieved by dispensing 5 ul per well of a 600,000 cells/mL resuspended in Assay Media (AM; phenol-red free DMEM, 2% FBS, 5×PSG) via a MicroFlo (Biotek; 5 ul dispense cassette). The seeded assay plates were incubated overnight at 37° C. in an incubator with 5% CO2. The following day, a 10 nL volume of compound was transferred acoustically (ECHO 525, Labcyte Inc.) to each well in the assay plate. Sporozoite forms of a Plasmodium berghei line expressing luciferase (Pb-luc) were dissected and purified from infected Anopheles stephensi mosquitoes (provided by the NYU insectary) as previously described by Meister et al. (Science, 2011). Purified sporozoites (spz) were stored at 250 spz/uL in chilled PBS supplemented with 3% BSA. 3 uL of Pb-luc spz solution was dispensed to each assay well using a Bottlevalve equipped with a custom, single-tip dispense head (GNF Systems). Assay plates were centrifuged at 330×g for 3 minutes to pellet the spz, then the assay plates were returned to the 37° C. incubator for 48 h. Luciferase signal, which corresponds with parasite proliferation, was detected by adding 2 uL of BrightGlo (Promega) to each well using the MicroFlo (Biotek; 1 ul cassette). Luminescence was immediately measured on an Envision MultiLabel Plate Reader (PerkinElmer).

[3] = infected human erythrocytes, 72 hours, SYBR Green fluorescence
[4] = read-out: EC50, P. berghei luciferase Proliferation Assay
[5] = values marked * in Table 2, CD81-GFP-HepG2 cells, 48 h, luminescence, read-out: EC50 (nM), P. berghei luciferase Proliferation Assay

Row | Structure (SMILES) | EC50 [1, 3] [nM] | EC50 [2, 4] [nM] | EC50 [2, 5] [nM] | EC50 ([1]; 72 h) [nM]
1 | CNC(=O)c1ccc(-c2cnn3ccc(C(=O)N(NC)c4ccc(C#N)cc4)cc23)cn1 [Example 92, 5-(5-(1-(4-cyanophenyl)-2-methylhydrazinecarbonyl)pyrazolo[1,5-a]pyridin-3-yl)-N-methyl picolinamide] | 24 | ≤ 20 | 15 | 
2 | CNC(=O)c1ccc(-c2cnn3ccc(N(C)C(=O)c4ccc(C#N)cn4)cc23)cc1 [Example 94, 5-cyano-N-methyl-N-(3-(4-(methylcarbamoyl)phenyl)pyrazolo[1,5-a]pyridin-5-yl)picolinamide] | 17 | ≤ 20 | 13 | 
3 | CCN(C(=O)c1ccn2ncc(-c3ccc(C(=O)NC)cc3)c2c1)c1ccc(F)cn1 [Example 95, N-ethyl-N-(5-fluoropyridin-2-yl)-3-(4-(methylcarbamoyl)phenyl)pyrazolo[1,5-a]pyridine-5-carboxamide] | 23 | ≤ 20 | 5 | 
4 | CCN(C(=O)c1ccn2ncc(-c3ccc(C(=O)NC)cc3)c2c1)c1ccc(C(F)(F)F)cn1 [Example 96, N-ethyl-3-(4-(methylcarbamoyl)phenyl)-N-(5-(trifluoromethyl)pyridin-2-yl)pyrazolo[1,5-a]pyridine-5-carboxamide] | 12 | ≤ 20 | 4 | 
5 | CNC(=O)c1ccc(-c2cnn3ccc(C(=O)N(c4ccc(C#N)cn4)C4CCCC4)cc23)cc1 [Example 126, N-(5-Cyanopyridin-2-yl)-N-cyclopentyl-3-(4-(methylcarbamoyl)phenyl)pyrazolo[1,5-a]pyridine-5-carboxamide] | 67 |  |  | 
6 | CCNC(=O)c1ccc(-c2cnn3ccc(C(=O)N(c4ccc(C#N)cn4)C4CC4)cc23)cc1 [Example 127, N-(5-Cyanopyridin-2-yl)-N-cyclopropyl-3-(4-(ethylcarbamoyl)phenyl)pyrazolo[1,5-a]pyridine-5-carboxamide] | 49 |  |  | 
7 | CNC(=O)c1ccc(-c2cnn3ccc(C(=O)N(c4ccc(C(=O)O)cn4)C4CC4)cc23)cc1 [Example 128, 6-(N-Cyclopropyl-3-(4-(methylcarbamoyl)phenyl)pyrazolo[1,5-a]pyridine-5-carboxamido) nicotinic acid] | 4270 |  |  | 
8 | CNC(=O)c1ccc(-c2cnn3ccc(C(=O)N(c4ccc(C(N)=O)cn4)C4CC4)cc23)cc1 [Example 129, N-(5-Carbamoylpyridin-2-yl)-N-cyclopropyl-3-(4-(methylcarbamoyl)phenyl)pyrazolo[1,5-a]pyridine-5-carboxamide] | 2440 |  |  | 
9 | CNC(=O)c1ccc(-c2cnn3ccc(C(=O)N(c4ccc(F)c(F)c4)C4CC4)cc23)cc1 [Example 130, N-Cyclopropyl-N-(3,4-difluorophenyl)-3-(4-(methylcarbamoyl)phenyl)pyrazolo[1,5-a]pyridine-5-carboxamide] | 12 |  |  | 
10 | N#Cc1ccc(N(C(=O)c2ccn3ncc(-c4ccc(C(=O)NC5COC5)cc4)c3c2)C2CC2)nc1 [Example 131, N-(5-Cyanopyridin-2-yl)-N-cyclopropyl-3-(4-(oxetan-3-ylcarbamoyl)phenyl)pyrazolo[1,5-a]pyridine-5-carboxamide] | 324 |  |  | 
11 | CNC(=O)c1ccc(-c2cnn3ccc(C(=O)N(c4ccc(C(F)(F)F)cn4)C4CC4)cc23)cc1 [Example 132, N-Cyclopropyl-3-(4-(methylcarbamoyl)phenyl)-N-(5-(trifluoromethyl)pyridin-2-yl)pyrazolo[1,5-a]pyridine-5-carboxamide] | 29 |  |  | 
12 | CNC(=O)c1ccc(-c2cnn3ccc(C(=O)N(c4ccc(C#N)cn4)C4CC4)cc23)nc1 [Example 133, N-(5-Cyanopyridin-2-yl)-N-cyclopropyl-3-(5-(methylcarbamoyl)pyridin-2-yl)pyrazolo[1,5-a]pyridine-5-carboxamide] | 58 |  | 34 | 
13 | N#Cc1ccc(N(C(=O)c2ccn3ncc(-c4ccc(C(N)=O)cc4)c3c2)C2CC2)cc1 [Example 134, 3-(4-carbamoylphenyl)-N-(4-cyanophenyl)-N-cyclopropylpyrazolo[1,5-a]pyridine-5-carboxamide] | 4 |  |  | 
14 | NC(=O)c1ccc(-c2cnn3ccc(C(=O)N(c4ccc(F)c(F)c4)C4CC4)cc23)cc1 [Example 135, 3-(4-Carbamoylphenyl)-N-cyclopropyl-N-(3,4-difluorophenyl)pyrazolo[1,5-a]pyridine-5-carboxamide] | 1 |  |  | 
15 | CNC(=O)c1ccc(-c2cnn3ccc(C(=O)N(c4ccc(C)cn4)C4CC4)cc23)cc1 [Example 136, N-Cyclopropyl-3-(4-(methylcarbamoyl)phenyl)-N-(5-methylpyridin-2-yl)pyrazolo[1,5-a]pyridine-5-carboxamide] |  |  | 10 | 
16 | CNC(=O)c1ccc(-c2cnn3ccc(C(=O)N(c4ccc(C#N)cc4)C4CC4)cc23)cn1 [Example 137, N-(4-Cyanophenyl)-N-cyclopropyl-3-(6-(methylcarbamoyl)pyridin-3-yl)pyrazolo[1,5-a]pyridine-5-carboxamide] | 12 |  | 10 | 
17 | N#Cc1ccc(N(C(=O)c2ccn3ncc(-c4ccc(C(N)=O)nc4)c3c2)C2CC2)cc1 [Example 138, 3-(6-Carbamoylpyridin-3-yl)-N-(4-cyanophenyl)-N-cyclopropylpyrazolo[1,5-a]pyridine-5-carboxamide] | 10 |  |  | 
18 | N#Cc1ccc(N(C(=O)c2ccn3ncc(-c4ccc(C(N)=O)cn4)c3c2)C2CC2)nc1 [Example 139, 3-(5-Carbamoylpyridin-2-yl)-N-(5-cyanopyridin-2-yl)-N-cyclopropylpyrazolo[1,5-a]pyridine-5-carboxamide] | 30 |  |  | 
19 | CNC(=O)c1ccc(-c2cnn3ccc(C(=O)N(c4ccc(C#N)cc4)C4CC4)cc23)nc1 [Example 141, N-(4-Cyanophenyl)-N-cyclopropyl-3-(5-(methylcarbamoyl)pyridin-2-yl)pyrazolo[1,5-a]pyridine-5-carboxamide] |  |  | 17 | 65
20 | N#Cc1ccc(N(C(=O)c2ccn3ncc(-c4ccc(C(N)=O)cn4)c3c2)C2CC2)cc1 [Example 142, 3-(5-Carbamoylpyridin-2-yl)-N-(4-cyanophenyl)-N-cyclopropylpyrazolo[1,5-a]pyridine-5-carboxamide] |  |  |  | 48
21 | CNC(=O)c1ccc(-c2cnn3ccc(C(=O)N(c4ccc(Cl)cc4)C4CC4)cc23)cn1 [Example 143, N-(4-Chlorophenyl)-N-cyclopropyl-3-(6-(methylcarbamoyl)pyridin-3-yl)pyrazolo[1,5-a]pyridine-5-carboxamide] | 12 |  | 7 | 
22 | CNC(=O)c1ccc(-c2cnn3ccc(C(=O)N(c4ccc(C#N)cn4)C4CCC4)cc23)cn1 [Example 144, N-(5-Cyanopyridin-2-yl)-N-cyclobutyl-3-(6-(methylcarbamoyl)pyridin-3-yl)pyrazolo[1,5-a]pyridine-5-carboxamide] | 27 |  | 22 | 
23 | CNC(=O)c1ccc(-c2cnn3ccc(C(=O)N(c4ccc(C#N)cc4)C4CCC4)cc23)cn1 [Example 145, N-(4-Cyanophenyl)-N-cyclobutyl-3-(6-(methylcarbamoyl)pyridin-3-yl)pyrazolo[1,5-a]pyridine-5-carboxamide] | 12 |  | 8 | 
24 | CNC(=O)c1ccc(-c2cnn3ccc(S(=O)(=O)N(c4ccc(C#N)cn4)C4CC4)cc23)cc1 [Example 164, 4-(5-(N-(5-Cyanopyridin-2-yl)-N-cyclopropylsulfamoyl)pyrazolo[1,5-a]pyridin-3-yl)-N-methylbenzamide] | 2 |  |  | 
25 | N#Cc1ccc(N(C2CC2)S(=O)(=O)c2ccn3ncc(-c4ccc(C(N)=O)cc4)c3c2)nc1 [Example 165, 4-(5-(N-(5-cyanopyridin-2-yl)-N-cyclopropylsulfamoyl)pyrazolo[1,5-a]pyridin-3-yl)benzamide] | 3 |  |  | 
